Source: patent publication US4835157A, “Thieno- and furopyrimidine-2,4-dione piperidine derivatives as serotonin antagonists and alpha adrenergic blocking agents” (Ortho Pharmaceutical Corporation, priority 1988, dated 1989)
pIC50: −log10 of the molar value.

How the values were obtained:
5HT2 [1] = target: T1, 5HT2 (Rattus norvegicus, UniProt P14842); experiment: 5HT2 Blockade in vivo (antagonism of 5HT induced pressor responses); design: Spontaneously hypertensive rats were anesthetized with sodium pentobarbital; from tissue; host or cells: whole animal: anesthetized spontaneously hypertensive rats (vasculature); species or system spontaneously hypertensive rats; conditions: rat, iv, read-out: 5-HT-Induced Pressor Response ED50
Method: Antagonism of 5HT induced pressor responses was used to assess 5HT2 blockade in vivo. Spontaneously hypertensive rats were anesthetized with sodium pentobarbital (50 mg/kg, i.p.). The right carotid artery and vein were cannulated for pressure recording and drug injection, respectively. The trachea was cannulated, the rat placed on a respirator and ventilated with room air at 50-60 breaths/minute. Rats were pretreated with prazosin hydrochloride (1 mg/kg, i.v., blous) and pentolinium tartrate (5 mg/kg, i.v., bolus). After 10 minutes equilibration, the rat was challenged with 5HT (100 μg/kg) which elevates mean arterial pressure (MAP) 60-100 mmHg; non-responsive rats were discarded.
After a baseline had been reestablished, bolus injections of 5HT (100 μg/kg, i.v.) were given and the MAP responses were evaluated both pre- and post-drug administration. 5HT challenges were repeated 10 minutes after each dose of antagonist. Up to three cumulative doses of the antagonist were given to a single animal.

[2] = system: Serotonin-Induced Smooth Muscle Contractions (rabbit thoracic aorta); experiment: Inhibition of Serotonin-Induced Smooth Muscle Contractions (isolated thoracic aorta strips); type: cell-based; conditions: Oryctolagus cuniculus, 10 min, concentration shifting the serotonin dose curve 10x to the right, 10 min preincubation, read-out: 5-HT-Induced Smooth Muscle Contraction DR10
Method: Inhibition of Serotonin-Induced Smooth Muscle Contractions
The test objects of this Example were canines and rabbits. Rabbits were sacrificed by T-61 injection and the thoracic aorta was removed immediately. The aorta was placed in warmed, oxygenated Krebs-Henseleit buffer. After the tissue was cleaned, a 2-3 mm wide strip was cut helically from each aorta. A strip of approximately 5 cm was suspended in Krebs-Henseleit buffer at 37° C. in a 25 ml tissue bath and the tissues equilibrated at an initial resting tension of 4 g for 90-120 minutes. An initial serotonin dose curve, 0.01-10 μM was then done on each tissue, followed by a 60 minute washout and reequilibration. The test drug was then added for a 10 minute preincubation and another serotonin dose curve was done using 0.01-100 μM.
Results are expressed as DR10 values. This is the concentration of the compound required to shift the serotonin dose curve 10x to the right, i.e., the concentration of antagonist at which the concentration of serotonin required for 50% maximal contraction is increased ten-fold.

serotonin receptors = experiment: Inhibition of 5-HTP-Induced Head Twitching; type: in vivo; conditions: male CD1 mice
Method: Inhibition of 5-HTP-Induced Head Twitching
This test detects compounds with antagonistic activity of serotonin receptors in vivo, and is a modified procedure of Corne, Pickering and Warner, Brit. J. Pharmacol. 20, 106 (1963). Groups of male CD1 mice were fasted overnight but allowed water ad libitum. They were deprived of water during the course of the experiment. The mice were weighed and treated orally or parenterally with the test compound in a dose volume of 10 ml/kg. Doses of test substance were calculated based upon the active compound. Substances for oral administration were dissolved or suspended in a 0.5% aqueous methylcellulose (15 centipoises) vehicle containing 4 ml of Tween 80/l.
A dose of 160 mg/kg of L-5-hydroxytryptophan (5-HTP) was administered i.v. in a dose volume of 5 ml/kg after one hour. The test mouse was restrained in a rodent restrainer that allowed the tail to extend out the back. The tail was then placed in tepid (but not scalding) water for approximately 10 seconds to soften the skin and dilate the tail vein. A 1 ml syringe and 25 gauge (5/8 inch) needle was used to administer the 5-HTP solution into one of the lateral tail veins.
A timer was started after dosing with 5-HTP to the first animal of the test group. […] A head twitch involves the head, neck and ears and has the appearance of an exaggerated pinal reflex. The number of head twitches for each individual vehicle-treated mouse were recorded to establish a historical baseline.
The active compounds in the test block the twitch response (the response rated all or none).

[3] = system: serotonin-induced platelet aggregation; experiment: Platelet Aggregation Assay (serotonin-induced); type: cell-based; conditions: Platelet; human plasma, serotonin 5 μM
Method: Platelet Aggegation Assay
Human blood was collected into tubes containing sodium citrate. The plasma was separated by centrifugation and was used as the source of platelets. Serotonin (5 μM) was used as the agonist to induce platelet aggregation. A control aggregation curve (as measured by the decrease in absorbance in transmitted light) was obtained in the presence of serotonin and in the absence of test compound. The test compound was added to an identical sample in a cuvette for one minute before addition of serotonin to yield the experimental curve.

[4] = system: Spontaneously Hypertensive Rats (SHR); experiment: Antihypertensive Activity in Spontaneously Hypertensive Rats (SHR); type: in vivo, rat; conditions: @ 5 mg/kg p.o., 4 h monitoring
Method: Antihypertensive Activity in Spontaneously Hypertensive Rats (SHR)
Antihypertensive activity was assessed using the following procedure. Adult male SHR were surgically prepared with arterial cannuli under light ether anesthesia and given 60-90 minute post-surgical recovery. Mean arterial pressure (MAP) was continuously monitored via the arterial line. After baseline MAP was recorded, groups of 3-6 SHR received a single dose of drug or vehicle (0.5% methylcellulose) administered by gavage at doses of 1 to 5 mg/kg.MAP was monitored for four hours post-dosing.
Maximal changes in MAP were reported.

5HT1A receptor = target: T2, 5HT1A receptor (Rattus norvegicus, UniProt P19327); experiment: Brain Serotonin (5HT1A) radioreceptor Assay (3H-8-OH DPAT displacement, rat frontal cortex membranes); type: binding; conditions: 3H-8-OH DPAT; for inhibition at 1 µM: read-out: Brain 5-HT1 Receptor % displaced (% inhibition)
T2 construct: Membrane fragments were prepared from prefrontal cortex; from tissue; host or cells: prefrontal/frontal cortex of female rats (about 150 g), membrane fragments
T2 sequence (P19327 1-422): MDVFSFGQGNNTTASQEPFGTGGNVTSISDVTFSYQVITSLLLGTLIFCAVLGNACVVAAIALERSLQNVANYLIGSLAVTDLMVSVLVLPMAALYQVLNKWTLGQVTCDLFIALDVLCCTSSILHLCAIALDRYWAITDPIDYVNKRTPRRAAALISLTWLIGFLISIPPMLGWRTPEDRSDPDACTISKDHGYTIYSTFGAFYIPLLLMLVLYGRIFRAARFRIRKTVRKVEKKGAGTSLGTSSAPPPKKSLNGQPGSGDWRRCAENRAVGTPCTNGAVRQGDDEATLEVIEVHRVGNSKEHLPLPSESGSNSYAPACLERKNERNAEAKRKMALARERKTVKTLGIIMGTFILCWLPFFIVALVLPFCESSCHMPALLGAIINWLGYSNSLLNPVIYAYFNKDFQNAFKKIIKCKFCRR
Method: Brain Serotonin (5HT1A) radioreceptor Assay
The text objects of this procedure were rat frontal cortex membranes. Membrane fragments were prepared from prefrontal cortex disected from brains obtained from female rats (≈150 g). The 5HT1A sites were labeled with ^3 H-8-OH dipropylaminotetralin (8-OH-DPAT). Membrane fragments, ^3 H-8-OH DPAT, TRIS buffer (pH 7.4) and unlabeled compound were incubated for 10 minutes at 37° C. and then for 10 minutes at 4° C. Separation of bound from unbound ^3 H-8-OH DPAT was performed by vacuum filtration on a glass fiber disc. The ability of a compound to compete with ^3 H-8-OH DPAT for binding sites is a measure of the affinity of the compound for the 5HT1A receptor. Specific binding was determined by the difference between total counts bound and the counts bound in the presence of […] 5-hydroxytryptamine.

[5] = system: alpha1 adrenergic receptor; experiment: Alpha1 Blockade in vivo (inhibition of phenylephrine pressor response); design: species or system spontaneously hypertensive rats (SHR); conditions: anesthetized, vagotomized SHR; i.v.
Method: The potency of these compounds as alpha1 adrenergic antagonists was determined using the following procedure: adult male spontaneously hypertensive rats (SHR) were anesthetized and bilaterally vagotomized. A carotid artery and jugular vein were cannulated for monitoring mean arterial blood pressure and drug administration, respectively. The percent inhibition of alpha1 adrenergic receptor activation was quantified by measuring pressor responses to phenylephrine before and after antagonist treatment. […] Compounds were tested to the limits of their solubility for intravenous administration.

5HT2 [6] = target: T1, 5HT2; experiment: Brain Serotonin (5-HT2) Radioreceptor Assay (3H-ketanserin displacement, rat frontal cortex membranes); type: binding; design: dissected from brains obtained from female rats; from tissue; host or cells: frontal cortex of female rats (about 150 g), membrane fragments; conditions: 15 min at 37° C
Method: Brain Serotonin (5-HT2) Radioreceptor Assay
The test objects of this Example were rat frontal cortex membranes. Mebrane fragments were prepared from the frontal cortex dissected from brains obtained from female rats (≈150 g). […] Compound bound to the receptor site was separated from the remaining unbound compound by vacuum filtration. […] Specific binding was determined by the difference between total counts bound and counts bound in the presence of 10^-6 M methysergide.

T1 sequence (P14842 whole entry): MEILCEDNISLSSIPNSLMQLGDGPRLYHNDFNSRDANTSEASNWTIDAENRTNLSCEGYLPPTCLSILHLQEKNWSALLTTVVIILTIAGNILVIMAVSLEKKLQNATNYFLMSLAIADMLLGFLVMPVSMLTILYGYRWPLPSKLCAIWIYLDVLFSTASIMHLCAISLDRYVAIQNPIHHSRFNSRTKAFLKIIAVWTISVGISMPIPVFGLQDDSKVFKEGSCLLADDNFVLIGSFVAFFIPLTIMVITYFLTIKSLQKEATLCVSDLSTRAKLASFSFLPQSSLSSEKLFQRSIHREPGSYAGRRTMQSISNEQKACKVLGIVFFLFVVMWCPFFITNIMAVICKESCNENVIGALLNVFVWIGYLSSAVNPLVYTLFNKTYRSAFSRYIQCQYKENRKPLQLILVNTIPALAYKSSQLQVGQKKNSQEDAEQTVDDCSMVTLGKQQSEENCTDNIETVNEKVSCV

| SMILES | ED50 (5HT2 [1]) | IC (10-fold shift) [2] | Inhibit. of 5-HTP-Head Twitch ED50 (serotonin receptors; 5-HTP 160 mg/kg i.v. after one hour) | pIC50 [3] | Antihypertensive Activity, p.o., % AMAP (maximal change in mean arterial pressure) [4] | pIC50 (5HT1A receptor; rat frontal cortex membranes, pH 7.4, read-out: Brain 5-HT1 Receptor IC50) | Phenylephrine-Induced Pressor Response ED50 [5] | pIC50 (5HT2 [6]) | Inhibit. of 5-HTP-Head Twitch (result in words) (serotonin receptors; @ 10 (mg/kg, p.o.)) | inhibition at 1 µM (5HT1A receptor) |
| --- | --- | --- | --- | --- | --- | --- | --- | --- | --- | --- |
| O=C(c1ccc(F)cc1)C1CCN(CCn2c(=O)[nH]c3ccsc3c2=O)CC1 [Example 1, 3-[2-[4-(4-Fluorobenzoyl)piperidin-1-yl]ethyl]thieno[3,2-d]pyrimidine-2,4-dione] | 0.009 mg/kg | 0.0063 µM | 2.1 mg/kg, p.o. | 7.47 | -10% | 4.80 | > 10 mg/kg | 9.22 | – | – |
| CC(=O)n1c(=O)n(CCN2CCC(C(=O)c3ccc(F)cc3)CC2)c(=O)c2ccsc21 [Example 3, 1-Acetyl-3-[2-[4-(4-fluorobenzoyl)piperidin-1-yl]ethyl]thieno[2,3-d]pyrimidine-2,4-dione] | 0.025 mg/kg | 0.0229 µM | – | 5.10 | -4% | – | 10.0 mg/kg | 8.62 | Inact. | 13% |
| O=c1[nH]c2sccc2c(=O)n1CCN1CCC(=C(c2ccc(F)cc2)c2ccc(F)cc2)CC1 [Example 6, 3-[2-[4-[Bis(4-fluorophenyl)methylene]piperidin-1-yl]ethyl]thieno[2,3-d]pyrimidine-2,4-dione] | 0.23 mg/kg | 0.00899 µM | – | 5.35 | -13% | – | > 3 mg/kg | 9.10 | – | 24% |
